Like-named read-outs stand apart in the source and are kept apart here.
Experiments:
[1] = molecular target: CDK2 CycE1 kinase (Homo sapiens (Human), UniProt P24941); test: Determination of inhibitory activity against CDK2 CycE1 kinase; type: biochemical
Description: CDK2 CycE1 kinase solution (concentration: 0.015 ng/μL) was added to assay wells at 6 μL/well, and different compounds dissolved in DMSO were added to the assay wells separately using a nanoliter pipettor, such that the final concentrations of the compounds were 300 nM to 0.07 nM. The wells were set in duplicate, and a control well was set. After incubation of the above system for 30 min, ATP (concentration: 50 μM or 5000 μM) was mixed with ULight-Myelin Basic Protein Peptide substrate (manufacturer: PerkinElmer, concentration: […]) at a ratio of 1:1, and the mixture was added to the assay wells at 4 μL/well. The resulting mixture was left to react at room temperature for 2 h, and then 5 μL of EDTA was added to terminate the reaction, followed by addition of 5 μL of a detection antibody (manufacturer: PerkinElmer, concentration: 8 nM). The mixture was incubated at room temperature for 1 h.

[2] = molecular target: CDK2/CycA2 kinase (Homo sapiens (Human), UniProt P24941); test: Determination of inhibitory activity against CDK2/CycA2 kinase; type: biochemical
Description: The wells were set in duplicate, and a control well was set. […] The resulting mixture was left to react at room temperature for 2 h, and then 5 µL of EDTA was added to terminate the reaction, followed by addition of 5 μL of a detection antibody (manufacturer: PerkinElmer, concentration: 8 nM). The mixture was incubated at room temperature for 1 h.

[3] = read-out: CDK2/CycE1 10 μM ATP (kinase) IC50
[4] = read-out: CDK2/CycA2 10 μM ATP (kinase) IC50

SMILES	IC50 ([1]; 10 μM ATP)	IC50 ([2]; 10 μM ATP)	IC50 [1, 3]	IC50 [2, 4]
CC(C)NC(=O)O[C@@H]1CC[C@H](c2cc(Nc3ccc4c(c3)CCN4S(C)(=O)=O)n[nH]2)C1 [Example 51]	< 10 nM	10 to 50 nM		
COc1nc(Nc2cc([C@H]3CC[C@@H](OC(=O)NC(C)C)C3)[nH]n2)ccc1NS(C)(=O)=O [Example 45]	< 10 nM	< 10 nM		
O=C(NC1CC1)O[C@@H]1CC[C@H](c2cc(Nc3ccc4c(c3)CS(=O)(=O)C4)n[nH]2)C1 [Example 67]	< 10 nM	< 10 nM		
[2H]C([2H])([2H])C([2H])(NC(=O)O[C@@H]1CC[C@H](c2cc(Nc3ccc4c(c3)CS(=O)(=O)C4)n[nH]2)C1)C([2H])([2H])[2H] [Example 78]	< 10 nM	< 10 nM		
CC(C)NC(=O)O[C@@H]1CC[C@H](c2cc(Nc3ccc(NS(C)(=O)=O)c(OC(F)(F)F)n3)n[nH]2)C1 [Example 29]	< 10 nM	< 10 nM		
CC(C)NC(=O)O[C@@H]1CC[C@H](c2cc(Nc3ccc4c(c3)CNS4(=O)=O)n[nH]2)C1 [Example 56]	< 10 nM	< 10 nM		
CC(C)NC(=O)O[C@@H]1CC[C@H](c2cc(Nc3ccc(NS(C)(=O)=O)c(Cl)n3)n[nH]2)C1 [Example 30]	< 10 nM	< 10 nM		
CC(C)NC(=O)O[C@@H]1CC[C@H](c2cc(Nc3ccc(NS(C)(=O)=O)c(C(F)F)c3)n[nH]2)C1 [Example 74]			< 10 nM	< 10 nM
CC(C)NC(=O)O[C@@H]1CC[C@H](c2cc(Nc3ccc(NS(C)(=O)=O)c(C(F)(F)F)c3)n[nH]2)C1 [Example 27]	< 10 nM	< 10 nM		
C[C@@H](NC(=O)O[C@@H]1CC[C@H](c2cc(Nc3ccc4c(c3)CS(=O)(=O)C4)n[nH]2)C1)C(F)(F)F [Example 64]			< 10 nM	< 10 nM
CC(C)NC(=O)O[C@@H]1CC[C@H](c2cc(Nc3ccc(S(N)(=O)=O)c(F)c3)n[nH]2)C1 [Example 33]	< 10 nM	< 10 nM		
CC(C)NC(=O)O[C@@H]1CC[C@H](c2cc(Nc3ccc(S(C)(=O)=O)cc3)n[nH]2)C1 [Example 54]	< 10 nM	< 10 nM		
CC(C)NC(=O)O[C@@H]1CC[C@H](c2cc(Nc3ccc(N4CCCC4=O)c(F)c3)n[nH]2)C1 [Example 35]	< 10 nM	< 10 nM		
CC(C)NC(=O)O[C@@H]1CC[C@H](c2cc(Nc3ccc(NS(C)(=O)=O)cn3)n[nH]2)C1 [Example 1]	< 10 nM	< 10 nM		
CC(C)NC(=O)O[C@@H]1CC[C@H](c2cc(Nc3ccc(P(C)(C)=O)cc3)n[nH]2)C1 [Example 41]	10 to 50 nM	10 to 50 nM		
C[C@H](NC(=O)O[C@@H]1CC[C@H](c2cc(Nc3ccc4c(c3)CS(=O)(=O)C4)n[nH]2)C1)C(F)(F)F [Example 63]			< 10 nM	< 10 nM
CC(C)NC(=O)O[C@@H]1CC[C@H](c2cc(Nc3ccc(NS(C)(=O)=O)c(OC(F)(F)F)c3)n[nH]2)C1 [Example 47]	< 10 nM	< 10 nM		
COCCN(C=O)c1ccc(Nc2cc(C3CCC(OC(=O)NC(C)C)C3)[nH]n2)nc1 (stereo not shown) [Example 12]	10 to 50 nM	10 to 50 nM		
CC(C)NC(=O)O[C@@H]1CC[C@H](c2cc(Nc3ccc(NC=O)cn3)n[nH]2)C1 [Example 5]	< 10 nM	< 10 nM		
CC(C)NC(=O)O[C@@H]1CC[C@H](c2cc(Nc3ccc(S(C)(=N)=O)cc3)n[nH]2)C1 (stereo partly shown) [Example 61]	< 10 nM	< 10 nM		
CC(=O)N(C)c1ccc(Nc2cc([C@H]3CC[C@@H](OC(=O)NC(C)C)C3)[nH]n2)nc1 [Example 4]	10 to 50 nM	10 to 50 nM		
CC(C)NC(=O)O[C@@H]1CC[C@H](c2cc(Nc3ccc(S(=O)(=O)N(C)C)cn3)n[nH]2)C1 [Example 69]	10 to 50 nM	10 to 50 nM		
CC(C)NC(=O)O[C@@H]1CC[C@H](c2cc(Nc3cc(OC(F)(F)F)c(NS(C)(=O)=O)cn3)n[nH]2)C1 [Example 31]			< 10 nM	< 10 nM
CC(C)NC(=O)O[C@H]1CC[C@@H](c2cc(Nc3ccc(NS(C)(=O)=O)c(C(F)(F)F)c3)n[nH]2)C1 [Example 50]	< 10 nM	< 10 nM		
CC(C)NC(=O)O[C@@H]1CC[C@H](c2cc(Nc3ccc4c(c3)S(=O)(=O)CC4)n[nH]2)C1 [Example 75]	< 10 nM	10 to 50 nM		
CC(C)NC(=O)O[C@@H]1CC[C@H](c2cc(Nc3ccc(C(N)=O)cc3)n[nH]2)C1 [Example 46]	< 10 nM	< 10 nM		
